Test results taken from PMC10354055, “An optimized Nurr1 agonist provides disease-modifying effects in Parkinson’s disease models” (Nature Communications, 2023).
Values joined by “and” are separate entries in the source; they are usually repeats but may differ in a detail not shown here. Equal entries are not always repeated.

What was measured:
Nurr1-LBD point mutants [1] = target: T1, Nurr1-LBD point mutants (Mus musculus, UniProt Q06219, I588A); assay: Luciferase assay with point-mutants of Nurr1-LBD, SK-N-BE(2)C cells;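 note: Firefly luciferase normalized to beta-galactosidase activity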; assay type: cell-based; details: Fig. 1g, I588A
T1 construct: expressed in transfected cells; host or cells: SK-N-BE(2)C
T1 sequence (Q06219 whole entry I588A, the tested form may be a part): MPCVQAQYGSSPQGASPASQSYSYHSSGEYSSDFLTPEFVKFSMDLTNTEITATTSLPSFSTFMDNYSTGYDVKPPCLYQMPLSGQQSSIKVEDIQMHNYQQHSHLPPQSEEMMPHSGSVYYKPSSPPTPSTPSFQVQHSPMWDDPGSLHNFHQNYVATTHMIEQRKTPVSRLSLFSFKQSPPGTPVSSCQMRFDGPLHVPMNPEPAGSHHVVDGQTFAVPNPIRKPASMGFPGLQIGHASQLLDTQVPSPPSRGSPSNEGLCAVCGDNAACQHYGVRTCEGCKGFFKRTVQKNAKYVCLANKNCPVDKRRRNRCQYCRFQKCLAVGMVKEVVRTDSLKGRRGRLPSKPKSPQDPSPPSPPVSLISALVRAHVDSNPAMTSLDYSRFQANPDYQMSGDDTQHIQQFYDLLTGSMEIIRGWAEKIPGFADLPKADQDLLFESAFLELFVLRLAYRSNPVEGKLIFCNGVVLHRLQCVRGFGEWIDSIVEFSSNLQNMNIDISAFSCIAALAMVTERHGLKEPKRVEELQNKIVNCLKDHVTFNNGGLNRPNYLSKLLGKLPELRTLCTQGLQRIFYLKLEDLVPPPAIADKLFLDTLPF
Procedure: (§1) Nurr1 transactivity was normalized to β-galactosidase activity.
(§2) Nurr1 mutants were generated using the QuikChange ǁ XL site-directed mutagenesis kit (Agilent Technologies) according to the manufacturer’s instruction. Mutagenesis reactions were carried out on the plasmid of mouse Nurr1 cloned into pcDNA3.1 backbone, and then verified by sequencing.

Nurr1-LBD point mutants [2] = target: T2, Nurr1-LBD point mutants (Mus musculus, UniProt Q06219, I573A); assay: as above; assay type: cell-based; details: Fig. 1g, I573A
T2 construct: expressed in transfected cells; host or cells: SK-N-BE(2)C
T2 sequence (Q06219 whole entry I573A, the tested form may be a part): as the sequence (Q06219 whole entry I588A, the tested form may be a part) above, with I573A, A588I counted along it
Procedure: as §1, §2

Nurr1-LBD point mutants [3] = target: T3, Nurr1-LBD point mutants (Mus musculus, UniProt Q06219); assay: as above; assay type: cell-based; details: Fig. 1g, WT
T3 construct: expressed in transfected cells; host or cells: SK-N-BE(2)C
T3 sequence (Q06219 whole entry, change not shown, the tested form may be a part): as the sequence (Q06219 whole entry I588A, the tested form may be a part) above, with A588I counted along it
Procedure: as §1, §2

Nurr1-LBD point mutants [4] = target: T4, Nurr1-LBD point mutants (Mus musculus, UniProt Q06219, L593A); assay: as above; assay type: cell-based; details: Fig. 1g, L593A
T4 construct: expressed in transfected cells; host or cells: SK-N-BE(2)C
T4 sequence (Q06219 whole entry L593A, the tested form may be a part): as the sequence (Q06219 whole entry I588A, the tested form may be a part) above, with A588I, L593A counted along it
Procedure: as §1, §2

Nurr1-LBD point mutants [5] = target: T5, Nurr1-LBD point mutants (Mus musculus, UniProt Q06219, K590A); assay: as above; assay type: cell-based; details: Fig. 1g, K590A
T5 construct: expressed in transfected cells; host or cells: SK-N-BE(2)C
T5 sequence (Q06219 whole entry K590A, the tested form may be a part): as the sequence (Q06219 whole entry I588A, the tested form may be a part) above, with A588I, K590A counted along it
Procedure: as §1, §2

Nurr1-LBD point mutants [6] = target: T6, Nurr1-LBD point mutants (Mus musculus, UniProt Q06219, S441A); assay: as above; assay type: cell-based; details: Fig. 1g, S441A
T6 construct: expressed in transfected cells; host or cells: SK-N-BE(2)C
T6 sequence (Q06219 whole entry S441A, the tested form may be a part): as the sequence (Q06219 whole entry I588A, the tested form may be a part) above, with S441A, A588I counted along it
Procedure: as §1, §2

Nurr1-LBD point mutants [7] = target: T7, Nurr1-LBD point mutants (Mus musculus, UniProt Q06219, A586F); assay: as above; assay type: cell-based; details: Fig. 1g, A586F
T7 construct: expressed in transfected cells; host or cells: SK-N-BE(2)C
T7 sequence (Q06219 whole entry A586F, the tested form may be a part): as the sequence (Q06219 whole entry I588A, the tested form may be a part) above, with A586F, A588I counted along it
Procedure: as §1, §2

TH+ neurons = assay: Primary rat VM neuron-glia co-culture, TH+ neurons (ICC); assay type: cell-based
Procedure: After blocking with 10% normal donkey serum (NDS) and 0.1% Triton X-100 solution for 1 h at room temperature, cells were incubated with primary antibodies against TH (1:1,000; Pel Freez, P40401) and Iba-1 (1:500; Abcam, ab5076) in 1% NDS and 0.1% Triton X-100 solution for overnight at 4 °C. […] Fluorescence images were taken using a KEYENCE microscope (BZ-X800; KEYENCE).

[8] = tested on: AAV-αSyn-induced male mice; assay: Western blot of human-αSyn in SNpc, AAV-αSyn-injected mice; assay type: in vivo, mouse
Procedure: Experiments were confirmed by duplicate measurements of the same sample. Quantification of immunoreactive bands was performed using ImageJ software (NIH, Bethesda, MD, USA) and expressed as a relative ratio against β-actin.
Adeno-associated viruses (AAVs) expressing GFP only or αSyn (wild-type or A53T) were kindly provided by Dr. Yoon Seong Kim from the University of Central Florida. Recombinant AAV vectors were produced using modified pAAV-IRES-hrGFP (Agilent) to express wild-type and mutant human αSyn under control of the CMV promoter. Viral particles (AAV2) were produced at the University of Iowa Viral Vector Core according to standard operating procedures (https://medicine.uiowa.edu/vectorcore/). Male C57BL/6 mice (8-10 weeks, 25-30 g; Jackson Laboratories) were randomly assigned to 7 groups including empty vector (GFP) + VEH, wild-type αSyn (αSyn^WT) + VEH, mutant αSyn (αSyn^A53T) + VEH, αSyn^WT + CQ, αSyn^A53T + CQ, αSyn^WT + 4A7C-301 and αSyn^A53T + 4A7C-301 (n = 8 per group). AAV vectors were delivered into the substantia nigra unilaterally by stereotaxic surgery. […] CQ (40 mg/kg/day) or 4A7C-301 (5 mg/kg/day) administration was started 4 weeks after AAV vector injections and continued for […] before sacrifice at 8 weeks after surgery.

full-length Nurr1 = target: T8, full-length Nurr1 (Mus musculus, UniProt Q06219); assay: Luciferase reporter assay, full-length Nurr1, MN9D cells; assay type: cell-based
T8 construct: Luciferase assays using Nurr1-LBD (c) or full-length Nurr1 (d) in SK-N-BE(2)C cells; expressed in transfected cells; host or cells: SK-N-BE(2)C (human neuroblastoma); MN9D (murine dopaminergic)
T8 sequence (Q06219 whole entry, the tested form may be a part): as the sequence (Q06219 whole entry I588A, the tested form may be a part) above, with A588I counted along it
Description: as §1

CCN1CCN(c2cc(N3CCN(CC)CC3)nc(NCCNc3ccnc4cc(Cl)ccc34)n2)CC1 [4A7C-301, N^1-(4,6-bis(4-ethylpiperazin-1-yl)pyrimidin-2-yl)-N^2-(7-chloroquinolin-4-yl)ethane-1,2-diamine]
Luciferase activity (fold) (Nurr1-LBD point mutants [1]): 2.735 fold and 2.747 fold and 2.797 fold and 2.7361 fold
Luciferase activity (fold) (Nurr1-LBD point mutants [2]): 1.906 fold and 2.068 fold and 2.015 fold and 1.962 fold
Luciferase activity (fold) (Nurr1-LBD point mutants [3]): 18.0755 fold and 17.4184 fold and 17.5507 fold and 18.6728 fold
Luciferase activity (fold) (Nurr1-LBD point mutants [4]): 5.7 fold and 5.711 fold and 5.709 fold and 5.928 fold
Luciferase activity (fold) (Nurr1-LBD point mutants [5]): 9.662 fold and 10.9664 fold and 10.3366 fold and 9.703 fold
Luciferase activity (fold) (Nurr1-LBD point mutants [6]): 8.067 fold and 8.586 fold and 8.69 fold and 8.14 fold
Luciferase activity (fold) (Nurr1-LBD point mutants [7]): 16.9378 fold and 18.2618 fold and 17.9787 fold and 16.7737 fold
concentration of maximal effect on mDAN rescue (TH+ neurons; MPP+ or LPS): 500 nM
concentration of maximal effect, times lower than CQ (TH+ neurons; mDAN rescue): 40 times
accumulation of αSyn (in words) [8]: significantly diminished
Luciferase activity (fold) (full-length Nurr1; Fig. S1e, conc. 1 µM, replicates): 4.17 fold and 4.227 fold and 4.16 fold
Luciferase activity (fold) (full-length Nurr1; Fig. S1e, conc. 10 µM, replicates): 4.281 fold and 4.08 fold and 4.219 fold
Luciferase activity (fold) (full-length Nurr1; Fig. S1e, conc. 10-1 µM, replicates): 2.744 fold and 2.808 fold and 2.876 fold
Luciferase activity (fold) (full-length Nurr1; Fig. S1e, conc. 10-2 µM, replicates): 1.103 fold and 1.099 fold and 1.116 fold
Luciferase activity (fold) (full-length Nurr1; Fig. S1e, conc. 10-3 µM, replicates): 1.064 fold and 1.034 fold and 1.025 fold
Luciferase activity (fold) (full-length Nurr1; Fig. S3b, 0.001 µM): 1.073 fold and 1.1005 fold and 1.0596 fold
Luciferase activity (fold) (full-length Nurr1; Fig. S3b, 0.01 µM): 1.226 fold and 1.227 fold and 1.236 fold
Luciferase activity (fold) (full-length Nurr1; Fig. S3b, 0.1 µM): 2.808 fold and 2.776 fold and 2.787 fold
Luciferase activity (fold) (full-length Nurr1; Fig. S3b, 1 µM): 4.245 fold and 4.359 fold and 4.273 fold
Luciferase activity (fold) (full-length Nurr1; Fig. S3b, 10 µM): 4.295 fold and 4.314 fold and 4.305 fold
